Assay results from US9085555B2, “Complement pathway modulators and uses thereof” (priority 2011, dated 2015).
pIC50: −log10 of the molar value.

biological target: Factor D (Homo sapiens (Human), UniProt P00746); assay: biochemical; type: biochemical; details: not given
Sequence (P00746 26-253): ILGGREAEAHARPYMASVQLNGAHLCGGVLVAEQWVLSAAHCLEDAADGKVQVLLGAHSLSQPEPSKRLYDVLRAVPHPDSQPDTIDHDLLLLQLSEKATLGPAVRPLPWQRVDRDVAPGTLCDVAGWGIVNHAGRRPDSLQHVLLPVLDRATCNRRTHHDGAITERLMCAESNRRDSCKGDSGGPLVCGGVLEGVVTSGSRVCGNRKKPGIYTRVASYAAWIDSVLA

SMILES	pIC50
CO[C@H]1[C@@H](C(=O)NCc2cccc(Cl)c2F)N(C(=O)Cn2cc(C(C)=O)c3ccccc32)C[C@@H]1F [Example 505, (2S,3S,4S)-1-[2-(3-Acetyl-indol-1-yl)-acetyl]-4-fluoro-3-methoxy-pyrrolidine-2-carboxylic acid 3-chloro-2-fluoro-benzylamide]	7.85

same assay, conditions: read-out: IC50

SMILES	pIC50
COc1ccc2c(c1)c(C(C)=O)cn2CC(=O)N1C[C@H](F)[C@@H](OC)[C@H]1C(=O)NCc1cccc(Cl)c1F [Example 485, (2S,3S,4S)-1-[2-(3-Acetyl-5-methoxy-indol-1-yl)-acetyl]-4-fluoro-3-methoxy-pyrrolidine-2-carboxylic acid 3-chloro-2-fluoro-benzylamide]	7.82
NC(=O)c1cn(CC(=O)N2C[C@H](F)C[C@H]2C(=O)Nc2cccc(Cl)c2F)c2ccccc12 [Example 486, 1-{2-[(2S,4R)-2-(3-Chloro-2-fluoro-phenylcarbamoyl)-4-fluoro-pyrrolidin-1-yl]-2-oxo-ethyl}-1H-indole-3-carboxylic acid amide]	5.61
COc1ccc2c(C(C)=O)cn(CC(=O)N3C[C@H](F)[C@@H](OC)[C@H]3C(=O)NCc3cccc(Cl)c3F)c2c1 [Example 487, (2S,3S,4S)-1-[2-(3-Acetyl-6-methoxy-indol-1-yl)-acetyl]-4-fluoro-3-methoxy-pyrrolidine-2-carboxylic acid 3-chloro-2-fluoro-benzylamide]	7.89
NC(=O)c1cn(CC(=O)N2C[C@H](F)C[C@H]2C(=O)NCc2cccc(Cl)c2F)c2ccc(Cl)cc12 [Example 488, 5-Chloro-1-{2-[(2S,4R)-2-(3-chloro-2-fluoro-benzylcarbamoyl)-4-fluoro-pyrrolidin-1-yl]-2-oxo-ethyl}-1H-indole-3-carboxylic acid amide]	6.60
NC(=O)c1cn(CC(=O)N2C[C@H](F)C[C@H]2C(=O)NCc2cccc(Cl)c2F)c2c(Cl)cccc12 [Example 489, 7-Chloro-1-{2-[(2S,4R)-2-(3-chloro-2-fluoro-benzylcarbamoyl)-4-fluoro-pyrrolidin-1-yl]-2-oxo-ethyl}-1H-indole-3-carboxylic acid amide]	6.91
COC[C@@]12C[C@@H](C(=O)NCc3cccc(Cl)c3F)N(C(=O)Cn3cc(C(C)=O)c4cccnc43)[C@@H]1C2 [Example 490, (1R,3S,5S)-2-[2-(3-Acetyl-pyrrolo[2,3-b]pyridin-1-yl)-acetyl]-5-methoxymethyl-2-aza-bicyclo[3.1.0]hexane-3-carboxylic acid 3-chloro-2-fluoro-benzylamide]	6.67
NC(=O)c1cn(CC(=O)N2C[C@H](F)C[C@H]2C(=O)NCc2cccc(Cl)c2F)c2cc(Cl)ccc12 [Example 491, 6-Chloro-1-{2-[(2S,4R)-2-(3-chloro-2-fluoro-benzyl-carbamoyl)-4-fluoro-pyrrolidin-1-yl]-2-oxo-ethyl}-1H-indole-3-carboxylic acid amide]	7.55
NC(=O)c1cn(CC(=O)N2C[C@H](F)C[C@H]2C(=O)NCc2cccc(Cl)c2F)c2cc(F)c(F)cc12 [Example 492, 1-{2-[(2S,4R)-2-(3-Chloro-2-fluoro-benzylcarbamoyl)-4-fluoro-pyrrolidin-1-yl]-2-oxo-ethyl}-5,6-difluoro-1H-indole-3-carboxylic acid amide]	6.63
COc1cnc2c(c1)c(C(C)=O)cn2CC(=O)N1[C@@H]2C[C@@H]2C[C@H]1C(=O)NCc1cccc(Cl)c1F [Example 494, (1R,3S,5R)-2-[2-(3-Acetyl-5-methoxy-pyrrolo[2,3-b]pyridin-1-yl)-acetyl]-2-aza-bicyclo [3.1.0]hexane-3-carboxylic acid 3-chloro-2-fluoro-benzylamide]	7.30
O=C(NCc1cccc(Cl)c1F)[C@@H]1C[C@H]2C[C@H]2N1C(=O)Cn1cc(C(=O)C(F)(F)F)c2ccccc21 [Example 495, (1R,3S,5R)-2-{2-[3-(2,2,2-Trifluoro-acetyl)-indol-1-yl]-acetyl}-2-aza-bicyclo[3.1.0] hexane-3-carboxylic acid 3-chloro-2-fluoro-benzylamide]	7.72
C[C@@]1(F)C[C@@H](C(=O)NCc2cccc(Cl)c2F)N(C(=O)Cn2cc(C(N)=O)c3ccccc32)C1 [Example 496, 1-{2-[(2S,4R)-2-(3-Chloro-2-fluoro-benzylcarbamoyl)-4-fluoro-4-methyl-pyrrolidin-1-yl]-2-oxo-ethyl}-1H-indole-3-carboxylic acid amide]	6.75
COc1ccc2c(c1)c(C(N)=O)cn2CC(=O)N1C[C@H](F)C[C@H]1C(=O)NCc1cccc(Cl)c1F [Example 497, 1-{2-[(2S,4R)-2-(3-Chloro-2-fluoro-benzylcarbamoyl)-4-fluoro-pyrrolidin-1-yl]-2-oxo-ethyl}-5-methoxy-1H-indole-3-carboxylic acid amide]	6.89
CC(=O)c1cn(CC(=O)N2C[C@H](F)C[C@H]2C(=O)NCc2cc(C#N)cc(Cl)c2F)c2ccccc12 [Example 498, (2S,4R)-1-[2-(3-Acetyl-indol-1-yl)-acetyl]-4-fluoro-pyrrolidine-2-carboxylic acid 3-chloro-5-cyano-2-fluoro-benzylamide]	6.16
COc1ccc2c(C(N)=O)cn(CC(=O)N3C[C@H](F)C[C@H]3C(=O)NCc3cccc(Cl)c3F)c2c1 [Example 499, 1-{2-[(2S,4R)-2-(3-Chloro-2-fluoro-benzylcarbamoyl)-4-fluoro-pyrrolidin-1-yl]-2-oxo-ethyl}-6-methoxy-1H-indole-3-carboxylic acid amide]	7.44
COc1ccc2c(C(C)=O)cn(CC(=O)N3C[C@H](F)C[C@H]3C(=O)NCc3cccc(Cl)c3F)c2c1 [Example 500, (2S,4R)-1-[2-(3-Acetyl-6-methoxy-indol-1-yl)-acetyl]-4-fluoro-pyrrolidine-2-carboxylic acid 3-chloro-2-fluoro-benzylamide]	7.44
COc1ccc2c(c1)c(C(C)=O)cn2CC(=O)N1CCCC[C@H]1C(=O)NCc1cccc(Cl)c1F [Example 501, (S)-1-[2-(3-Acetyl-5-methoxy-indol-1-yl)-acetyl]-piperidine-2-carboxylic acid 3-chloro-2-fluoro-benzylamide]	6.33
CC(=O)c1cn(CC(=O)N2C[C@](C)(F)C[C@H]2C(=O)NCc2cccc(Cl)c2F)c2ccncc12 [Example 502, (2S,4R)-1-[2-(3-Acetyl-pyrrolo[3,2-c]pyridin-1-yl)-acetyl]-4-fluoro-4-methyl-pyrrolidine-2-carboxylic acid 3-chloro-2-fluoro-benzylamide]	6.35
CC(=O)c1cn(CC(=O)N2[C@@H]3C[C@@H]3C[C@H]2C(=O)N[C@H](CCO)c2cccc(Cl)c2F)c2ccccc12 [Example 504, (1R,3S,5R)-2-[2-(3-Acetyl-indol-1-yl)-acetyl]-2-aza bicyclo[3.1.0]hexane-3-carboxylic acid [(R)-1-(3-chloro-2-fluoro-phenyl)-3-hydroxy-propyl]-amide]	7.24
CC(=O)c1cn(CC(=O)N2C[C@H]3C[C@H]3[C@H]2C(=O)NCc2cccc(Cl)c2F)c2cnccc12 [Example 506, (1R,2S,5S)-3-[2-(3-Acetyl-pyrrolo[2,3-c]pyridin-1-yl)-acetyl]-3-aza-bicyclo[3.1.0] hexane-2-carboxylic acid 3-chloro-2-fluoro-benzylamide]	6.48
CC(=O)c1cn(CC(=O)N2C[C@H](F)C[C@H]2C(=O)NCc2cccc(Cl)c2F)c2ccccc12 [Example 507, (2S,4R)-1-[2-(3-Acetyl-indol-1-yl)-acetyl]-4-fluoro-pyrrolidine-2-carboxylic acid 3-chloro-2-fluoro-benzylamide]	7.80
